What was measured:
[1] = biological target: T1, Cdk4/cyclin D1 (Homo sapiens, UniProt P11802); assay: Biochemical kinase assay Cdk4/cyclin D1; details: Table 6
T1 construct: made in house; host or cells: Sf9 insect cells
How it was run: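 Sf9-expressed Cdk/cyclin heterodimers phosphorylate GST-Rb (residues 379–928, 40 μg) with 50 μM ATP plus [γ-33P]ATP, pH 7.5, 10% DMSO, 15 min at 30 °C. Compounds 1 nM–10 μM. 33P captured on glutathione-sepharose and scintillation-counted; activity relative to DMSO control after EDTA-background subtraction.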

[2] = system: HCT-116 cells; assay: Calcein AM viability assay, HCT-116; type: cell-based; details: Homo sapiens, HCT-116, plus 1 mg/ml alpha acidic glycoprotein and 45 mg/ml human serum albumin; read-out: HCT-116 IC50 Protein adjusted
How it was run: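 Cells plated (1,000 HCT-116 in RPMI-1640/10% FCS; 4,000 IMR90 in MEM-alpha/10% FCS), adhered overnight, then given 7 doses of compound at 0-250 nM for 72 h at 37 °C. Viability read by Calcein AM fluorescence (ex 485, em 530) after 75 min; IC50 derived.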

[3] = system: adriamycin resistant cell line (ADR-res); assay: NCI panel (SRB), adriamycin resistant cell line; type: cell-based; details: Homo sapiens
From the text: The evaluation of compounds at the National Cancer Institute in their panel of 60 cell lines provides a wealth of information regarding efficacy in a wide range of tumor types and genetic backgrounds. Included within this panel are cell lines derived from leukemia, melanoma and cancers of the lung, colon, brain, ovary, breast, prostate and kidney. Use of this panel provides a measure of the efficacy of compounds in cells with alterations in many genes that are associated with neoplastic transformation including p53 and Her2/Neu as well as those involved in metabolism and those which confer multi-drug resistance. The data generated in these cell lines with the protocol described below can be used to evaluate the activity of compounds.
Cells were grown in RPMI-1640 10% FCS and plated in 96 well micro-titer plates at densities ranging from 5,000 to 40,000 cells/well. The plates were incubated for 24 hours at 37° C., 5% CO2 for 24 hours. […]
The effect of the compound on cellular viability was determined with the Sulforhodamine B (SRB) assay, which measures total protein. […] The bound stain was solubilized with 10 mM trizma base and the absorbance was read on a plate reader at […].

T1 sequence (P11802 whole entry, species assumed): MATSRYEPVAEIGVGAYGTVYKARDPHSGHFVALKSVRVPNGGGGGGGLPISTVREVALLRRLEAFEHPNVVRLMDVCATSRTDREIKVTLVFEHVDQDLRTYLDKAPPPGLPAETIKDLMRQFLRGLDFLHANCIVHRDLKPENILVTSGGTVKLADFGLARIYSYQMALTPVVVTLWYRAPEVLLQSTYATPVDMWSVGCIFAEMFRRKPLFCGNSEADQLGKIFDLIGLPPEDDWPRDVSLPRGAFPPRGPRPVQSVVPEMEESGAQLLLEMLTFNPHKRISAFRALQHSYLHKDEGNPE
T1 sequence (P24385 whole entry partner, species assumed): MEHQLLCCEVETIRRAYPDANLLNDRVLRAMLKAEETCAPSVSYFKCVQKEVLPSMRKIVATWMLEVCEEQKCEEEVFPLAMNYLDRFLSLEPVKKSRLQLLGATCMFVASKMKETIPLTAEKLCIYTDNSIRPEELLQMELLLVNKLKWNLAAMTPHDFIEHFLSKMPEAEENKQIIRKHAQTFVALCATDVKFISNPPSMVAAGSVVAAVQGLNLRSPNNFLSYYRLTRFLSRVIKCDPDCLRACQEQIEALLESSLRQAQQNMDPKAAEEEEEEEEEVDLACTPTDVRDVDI

Compound | IC50 [1] | IC50 [2] | IC50 [3]
CC(C)N1CCN(C(=O)COc2ccc(-c3[nH]nc4c3C(=O)c3c(NC(=O)NN5CCOCC5)cccc3-4)cc2)CC1.Cl [Compound A37] | < 100 nM |  | 
CC(C)c1nn(-c2c(Cl)cccc2Cl)c2nc(Cc3ccc(O)c(CN4CCN(C(C)C)CC4)c3)[nH]c(=O)c12 [Compound C] |  | < 1000 nM | < 100 nM

From patent US7605175B2, “Inhibitors of cyclin-dependent kinases, compositions and uses related thereto” (GPC Biotech AG, priority 2001, dated 2009)
